From PubChem BioAssay AID1963829 (Molecular Pharmacology Branch, DTP, NCI, 2024)

These compounds were tested on 935938-334-R-J1-PDC complex spheroid viability (assay: Anticancer human tumor 935938-334-R-J1-PDC patient-derived small intestine adenocarcinoma cell line growth inhibition [POLQ]). Conditions: second compound 0.1 µM; first compound 0.00316 µM; stronger effect = lower value.
Method: Multicellular complex tumor spheroid response to Polymerase (POL) inhibitors (novobiocin, ART-558, RP6685) in combination with a variety of drugs and investigational agents in selected tumor cell lines
The POL inhibitors (novobiocin, ART-558, and RP6685) were evaluated both individually and in combination with standard of care and investigational anticancer small molecules within a complex spheroid model of solid tumors. . Complex spheroids include a stromal component modeled by human endothelial cells (HUVEC) and fibroblasts modeled by human mesenchymal stem cells (MSCs). The concentration ranges selected for each drug and investigational agent were based upon clinically achievable concentrations if the clinical Cmax of the agent was known.
Compounds. The drugs and investigational agents: novobiocin (NSC847541), ART-558 (NSC835418), RP-6685 (NSC848927), peposertib (NSC802822), ceralasertib (NSC780249), elimusertib (NSC800525), camonsertib (NSC841442), AZD-1390 (NSC803789), olaparib (NSC753686), talazoparib (NSC767125), rucaparib (NSC756644), sotorasib (NSC818433), MRTX-1133 (NSC836407), SN-38 (NSC673596), topotecan (NSC609699), epotoside (NSC141540), doxorubicin (NSC123127), gemcitabine (NSC613327), 5-fluorouracil (NSC19893), paclitaxel (NSC125973), vemurafenib (NSC761431), MSA-2 (NSC828583), SN-011 (NSC837082), adavosertib (NSC754352), prexasertib (NSC758257), carboplatin (NSC241240) and oxaliplatin (NSC266046), were obtained from the National Cancer Institute (NCI) Developmental Therapeutics Program Chemical Repository (21). The FDA-approved anticancer drug set is available from the Developmental Therapeutics Program at https://dtp.cancer.gov/organization/dscb/obtaining/. […] The stock solutions were prepared in dimethyl sulfoxide (DMSO, Sigma-Aldrich, St. Louis, MO, cat. D2650), except for the platinum compounds which were prepared in saline (Quality Biological, Gaithersburg, MD, cat. 114-055-101), at 800-fold the tested concentration and stored at -70 degrees C prior to their use. All drugs and investigational agents were tested over a range starting from a high concentration at or near the clinical Cmax and decreasing in half-log increments. If the clinical Cmax for an agent had not been determined, the highest concentration tested was 10 microM, except for SN-38, which was tested at a high concentration of 1 microM.
Cell Culture. All cells were maintained in an incubator at 37 degrees C and 5% CO2 with 95% humidity. The PDC lines were cultured according to standard operating procedures established by the NCI PDMR (https://pdmr.cancer.gov). Table 3 of the manuscript, lists the cell lines along with the number of the three cell types plated to form the mct-spheroids and media for tumor cell growth. After thawing, all PDC lines, except 997537-175-T-J1-PDC and 415267-285-R-J2-PDC, were cultured in Matrigel-coated flasks prepared with a working solution of 1X Ham's F-12 nutrient mix, without supplementation (Thermo Fisher Scientific, cat. 11765054), 100 U/mL penicillin-streptomycin (Thermo Fisher Scientific, cat. 15140122), and 2.5% Matrigel (Corning Inc., Corning, NY, cat. 354248) for the first three passages. The two PDC lines 997537-175-T-J1-PDC and 415267-285-R-J2-PDC were cultured on uncoated flasks. The 857933-349-R-J2-PDC line was cultured in 6C/Colon 1B media containing advanced DMEM/F-12 (Thermo Fisher Scientific, cat. 12634028), 10 mM HEPES (Thermo Fisher Scientific, cat. 15630080), 1X GlutaMAX supplement (Thermo Fisher Scientific, cat. 35050061), 0.1 mg/mL primocin (InvivoGen, San Diego, CA, cat. ant-pm-2), 10% defined fetal bovine serum, heat inactivated (HyClone Laboratories Inc., Logan, UT, cat. SH30070.03HI), 50% L-WRN conditioned media (ATCC, cat. CRL-3276), 1.25 mM N-Acetyl-L-cysteine (Sigma-Aldrich, cat. A9165), 10 mM nicotinamide (Sigma-Aldrich, cat. N0636), 1X B-27 supplement (Thermo Fisher Scientific, cat. 17504044), 1X N-2 supplement (Thermo Fisher Scientific, cat. […]
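Note: spheroids exposed to drugs for seven days before viability read; 100% = DMSO vehicle control wells.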

Q: Which viability, T/C does the source give for `CCc1c2c(nc3ccc(O)cc13)-c1cc3c(c(=O)n1C2)COC(=O)[C@]3(O)CC` + Cc1cccc(N(C)C(=O)C2C(O)CCN2c2nc(C)cc(C(F)(F)F)c2C#N)c1 here?
A: 98.1%

Same assay, conditions: second compound 0.1 µM; first compound 0.01 µM; stronger effect = lower value

Q: Which viability, T/C does the source give for `CCc1c2c(nc3ccc(O)cc13)-c1cc3c(c(=O)n1C2)COC(=O)[C@]3(O)CC` + Cc1cccc(N(C)C(=O)C2C(O)CCN2c2nc(C)cc(C(F)(F)F)c2C#N)c1 here?
A: 66.6%

Same assay, conditions: second compound 0.1 µM; first compound 0.0316 µM; stronger effect = lower value

Q: Which viability, T/C does the source give for `CCc1c2c(nc3ccc(O)cc13)-c1cc3c(c(=O)n1C2)COC(=O)[C@]3(O)CC` + Cc1cccc(N(C)C(=O)C2C(O)CCN2c2nc(C)cc(C(F)(F)F)c2C#N)c1 here?
A: 38.9%

Q: `O=c1[nH]cc(F)c(=O)[nH]1` + COC1C(OC(N)=O)C(O)C(Oc2ccc3c(O)c(NC(=O)c4ccc(O)c(CC=C(C)C)c4)c(=O)oc3c2C)OC1(C)C was tested. Which viability, T/C did it give?
A: 79.4%

Q: How did the viability, T/C turn out when `COc1cc2cc(C(=O)CCC(=O)O)sc2cc1OC` + Nc1ccc(C#CCN(C(=O)Cc2ncc(C(F)(F)F)cc2C(F)(F)F)c2ccc(F)cc2)nn1 was run?
A: 99%

Q: How did the viability, T/C turn out when `C#Cc1c(F)ccc2cc(O)cc(-c3ncc4c(N5CC6CCC(C5)N6)nc(OCC56CCCN5CC(F)C6)nc4c3F)c12` (centres undefined) + Cc1cccc(N(C)C(=O)C2C(O)CCN2c2nc(C)cc(C(F)(F)F)c2C#N)c1 was run?
A: 80.3%

Same assay, conditions: second compound 0.1 µM; first compound 0.1 µM; stronger effect = lower value

Q: `CCc1c2c(nc3ccc(O)cc13)-c1cc3c(c(=O)n1C2)COC(=O)[C@]3(O)CC` + Cc1cccc(N(C)C(=O)C2C(O)CCN2c2nc(C)cc(C(F)(F)F)c2C#N)c1 was tested. Which viability, T/C did it give?
A: 32.5%

Q: For `O=c1[nH]cc(F)c(=O)[nH]1` + COC1C(OC(N)=O)C(O)C(Oc2ccc3c(O)c(NC(=O)c4ccc(O)c(CC=C(C)C)c4)c(=O)oc3c2C)OC1(C)C, which viability, T/C is on record?
A: 103%

Q: For `COc1cc2cc(C(=O)CCC(=O)O)sc2cc1OC` + Nc1ccc(C#CCN(C(=O)Cc2ncc(C(F)(F)F)cc2C(F)(F)F)c2ccc(F)cc2)nn1, which viability, T/C is on record?
A: 92%

Q: With `C#Cc1c(F)ccc2cc(O)cc(-c3ncc4c(N5CC6CCC(C5)N6)nc(OCC56CCCN5CC(F)C6)nc4c3F)c12` (centres undefined) + Cc1cccc(N(C)C(=O)C2C(O)CCN2c2nc(C)cc(C(F)(F)F)c2C#N)c1 as the compound, how does the viability, T/C read?
A: 75.2%

Same assay, conditions: second compound 0.1 µM; first compound 0.316 µM; stronger effect = lower value

Q: Which viability, T/C does the source give for `CCc1c2c(nc3ccc(O)cc13)-c1cc3c(c(=O)n1C2)COC(=O)[C@]3(O)CC` + Cc1cccc(N(C)C(=O)C2C(O)CCN2c2nc(C)cc(C(F)(F)F)c2C#N)c1 here?
A: 33.4%

Q: How did the viability, T/C turn out when `O=c1[nH]cc(F)c(=O)[nH]1` + COC1C(OC(N)=O)C(O)C(Oc2ccc3c(O)c(NC(=O)c4ccc(O)c(CC=C(C)C)c4)c(=O)oc3c2C)OC1(C)C was run?
A: 83.2%

Q: For `COc1cc2cc(C(=O)CCC(=O)O)sc2cc1OC` + Nc1ccc(C#CCN(C(=O)Cc2ncc(C(F)(F)F)cc2C(F)(F)F)c2ccc(F)cc2)nn1, which viability, T/C is on record?
A: 95.5%

Q: Which viability, T/C does the source give for `C#Cc1c(F)ccc2cc(O)cc(-c3ncc4c(N5CC6CCC(C5)N6)nc(OCC56CCCN5CC(F)C6)nc4c3F)c12` (centres undefined) + Cc1cccc(N(C)C(=O)C2C(O)CCN2c2nc(C)cc(C(F)(F)F)c2C#N)c1 here?
A: 62%

Same assay, conditions: second compound 0.1 µM; first compound 1 µM; stronger effect = lower value

Q: With `CCc1c2c(nc3ccc(O)cc13)-c1cc3c(c(=O)n1C2)COC(=O)[C@]3(O)CC` + Cc1cccc(N(C)C(=O)C2C(O)CCN2c2nc(C)cc(C(F)(F)F)c2C#N)c1 as the compound, how does the viability, T/C read?
A: 32.4%

Q: How did the viability, T/C turn out when `O=c1[nH]cc(F)c(=O)[nH]1` + COC1C(OC(N)=O)C(O)C(Oc2ccc3c(O)c(NC(=O)c4ccc(O)c(CC=C(C)C)c4)c(=O)oc3c2C)OC1(C)C was run?
A: 63%

Q: For `COc1cc2cc(C(=O)CCC(=O)O)sc2cc1OC` + Nc1ccc(C#CCN(C(=O)Cc2ncc(C(F)(F)F)cc2C(F)(F)F)c2ccc(F)cc2)nn1, which viability, T/C is on record?
A: 108%

Q: How did the viability, T/C turn out when `C#Cc1c(F)ccc2cc(O)cc(-c3ncc4c(N5CC6CCC(C5)N6)nc(OCC56CCCN5CC(F)C6)nc4c3F)c12` (centres undefined) + Cc1cccc(N(C)C(=O)C2C(O)CCN2c2nc(C)cc(C(F)(F)F)c2C#N)c1 was run?
A: 60.9%

Same assay, conditions: second compound 0.1 µM; first compound 3.16 µM; stronger effect = lower value

Q: With `O=c1[nH]cc(F)c(=O)[nH]1` + COC1C(OC(N)=O)C(O)C(Oc2ccc3c(O)c(NC(=O)c4ccc(O)c(CC=C(C)C)c4)c(=O)oc3c2C)OC1(C)C as the compound, how does the viability, T/C read?
A: 63.3%

Q: How did the viability, T/C turn out when `COc1cc2cc(C(=O)CCC(=O)O)sc2cc1OC` + Nc1ccc(C#CCN(C(=O)Cc2ncc(C(F)(F)F)cc2C(F)(F)F)c2ccc(F)cc2)nn1 was run?
A: 81.7%

Q: `C#Cc1c(F)ccc2cc(O)cc(-c3ncc4c(N5CC6CCC(C5)N6)nc(OCC56CCCN5CC(F)C6)nc4c3F)c12` (centres undefined) + Cc1cccc(N(C)C(=O)C2C(O)CCN2c2nc(C)cc(C(F)(F)F)c2C#N)c1 was tested. Which viability, T/C did it give?
A: 53.4%

Same assay, conditions: second compound 0.1 µM; first compound 10 µM; stronger effect = lower value

Q: How did the viability, T/C turn out when `O=c1[nH]cc(F)c(=O)[nH]1` + COC1C(OC(N)=O)C(O)C(Oc2ccc3c(O)c(NC(=O)c4ccc(O)c(CC=C(C)C)c4)c(=O)oc3c2C)OC1(C)C was run?
A: 55.9%

Q: With `COc1cc2cc(C(=O)CCC(=O)O)sc2cc1OC` + Nc1ccc(C#CCN(C(=O)Cc2ncc(C(F)(F)F)cc2C(F)(F)F)c2ccc(F)cc2)nn1 as the compound, how does the viability, T/C read?
A: 87%

Q: How did the viability, T/C turn out when `C#Cc1c(F)ccc2cc(O)cc(-c3ncc4c(N5CC6CCC(C5)N6)nc(OCC56CCCN5CC(F)C6)nc4c3F)c12` (centres undefined) + Cc1cccc(N(C)C(=O)C2C(O)CCN2c2nc(C)cc(C(F)(F)F)c2C#N)c1 was run?
A: 39.4%
